Molecular target: Galectin-3 (Homo sapiens, UniProt P17931)
Assay: Fluorescence Polarization Assay
Conditions: pH 7.2; 24 °C
Procedure: In fluorescence polarization measurements, a fluorescent probe was excited with plane-polarized light and the degree of polarization remaining in the emitted light is measured. When the probe is bound to protein, it rotates slower than when free, and the remaining fluorescence polarization is higher. The fluorescent anisotropy value for a probe-protein mixture is the average of the value for bound and free probe. For the direct binding asaay, the data (anisotropy, A in mA vs galectin concentration, [G] in uM) were fitted to a simplified formula to obtain Kd.

Sequence of Galectin-3 (P17931 whole entry): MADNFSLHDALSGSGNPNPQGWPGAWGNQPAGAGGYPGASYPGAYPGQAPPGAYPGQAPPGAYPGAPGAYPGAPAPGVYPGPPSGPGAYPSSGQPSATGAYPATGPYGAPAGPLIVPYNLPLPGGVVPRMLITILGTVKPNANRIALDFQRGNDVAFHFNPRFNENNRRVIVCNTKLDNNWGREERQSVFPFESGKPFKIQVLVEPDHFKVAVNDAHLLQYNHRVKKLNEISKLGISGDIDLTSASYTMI

Q: Which Kd does the source give for `CS[C@@H]1O[C@H](CO)[C@H](O)[C@H](NC(=O)c2ccc(C)cc2)[C@H]1OCc1ccccc1` [N-[(2S,3R,4S,5R,6R)-3-(benzyloxy)-5-hydroxy-6-(hydroxymethyl)-2-(methylsulfanyl)oxan-4-yl]-4-methylbenzamide] here?
A: 380 µM

From BindingDB's records for doi:10.1021/jm701266y (Lund University, 2008)
